Data: patent US6458824B1, “Solid preparation” (Dainippon Pharmaceutical Co., Ltd., priority 1999, dated 2002)

What was measured:
Assay type in all cases: cell-based
[1] = molecular target: T1, human β3-adrenergic receptor (Homo sapiens, UniProt P13945); assay: cAMP accumulation in CHO/pKREX10-36 cells highly expressing human β3-adrenergic receptor
T1 construct: expressed in transfected cells; host or cells: CHO (clone CHO/pKREX10-36)
Method: (§1) The cells were peeled off by incubation with phosphate-buffered saline containing 0.5 mM EDTA at 37° C. for 10 minutes after the medium was removed. The CHO/pKREX10-36 cells were collected by centrifugation, and suspended in Hanks' buffer (ICN Biomedicals) containing 1 mM L-ascorbic acid and 1 mM 3-isobutyl-1-methylxanthine at the concentration of about 5×10^5 cells/ml. This suspension (100 μl) and a test compound were mixed in the same buffer (500 μl) and incubated at 37° C. for 30 minutes, followed by boiling for 5 minutes to terminate the reaction. After centrifugation of the reaction mixture, the amount of cAMP in the supernatant was measured by using cAMP EIA System (Amersham).

[2] = molecular target: T2, human β2-adrenergic receptor (Homo sapiens, UniProt P07550); assay: cAMP accumulation in CHO/pKREX21-8 cells highly expressing human β2-adrenergic receptor
T2 construct: expressed in transfected cells; host or cells: CHO (clone CHO/pKREX21-8)
Method: as §1
(§2) Similarly, the amount of cAMP was measured in the same manner by using CHO/pKREX21-8 for highly expressing human β2-adrenergic receptor, or by using CHO/pKREX23-30 for highly expressing human β1-adrenergic receptor instead of the CHO/pKREX10-36 for highly expressing human β3-adrenergic receptor.

[3] = molecular target: T3, human β1-adrenergic receptor (Homo sapiens, UniProt P08588); assay: cAMP accumulation in CHO/pKREX23-30 cells highly expressing human β1-adrenergic receptor
T3 construct: expressed in transfected cells; host or cells: CHO (clone CHO/pKREX23-30)
Method: as §1, §2

T1 sequence (P13945 whole entry): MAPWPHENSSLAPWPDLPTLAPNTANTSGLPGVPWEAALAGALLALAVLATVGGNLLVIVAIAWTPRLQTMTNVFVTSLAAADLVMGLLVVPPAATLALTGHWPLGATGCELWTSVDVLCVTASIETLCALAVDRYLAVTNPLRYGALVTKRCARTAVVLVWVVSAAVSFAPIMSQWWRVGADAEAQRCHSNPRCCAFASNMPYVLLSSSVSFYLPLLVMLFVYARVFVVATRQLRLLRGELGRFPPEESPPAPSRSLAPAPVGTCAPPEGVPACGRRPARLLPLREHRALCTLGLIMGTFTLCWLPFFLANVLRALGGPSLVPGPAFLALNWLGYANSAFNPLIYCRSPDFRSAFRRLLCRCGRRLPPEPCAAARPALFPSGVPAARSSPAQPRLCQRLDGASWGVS
T2 sequence (P07550 whole entry): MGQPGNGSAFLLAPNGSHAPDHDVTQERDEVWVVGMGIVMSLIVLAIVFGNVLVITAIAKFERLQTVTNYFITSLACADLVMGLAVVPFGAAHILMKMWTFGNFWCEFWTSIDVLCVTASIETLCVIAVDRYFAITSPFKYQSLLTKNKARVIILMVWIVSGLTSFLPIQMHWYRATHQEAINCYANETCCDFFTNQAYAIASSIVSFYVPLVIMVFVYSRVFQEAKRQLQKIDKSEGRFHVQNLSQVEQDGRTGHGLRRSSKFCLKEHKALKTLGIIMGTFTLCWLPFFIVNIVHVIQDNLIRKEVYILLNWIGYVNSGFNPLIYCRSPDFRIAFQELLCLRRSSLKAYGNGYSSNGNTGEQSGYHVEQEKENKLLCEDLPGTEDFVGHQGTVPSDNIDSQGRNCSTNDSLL
T3 sequence (P08588 whole entry): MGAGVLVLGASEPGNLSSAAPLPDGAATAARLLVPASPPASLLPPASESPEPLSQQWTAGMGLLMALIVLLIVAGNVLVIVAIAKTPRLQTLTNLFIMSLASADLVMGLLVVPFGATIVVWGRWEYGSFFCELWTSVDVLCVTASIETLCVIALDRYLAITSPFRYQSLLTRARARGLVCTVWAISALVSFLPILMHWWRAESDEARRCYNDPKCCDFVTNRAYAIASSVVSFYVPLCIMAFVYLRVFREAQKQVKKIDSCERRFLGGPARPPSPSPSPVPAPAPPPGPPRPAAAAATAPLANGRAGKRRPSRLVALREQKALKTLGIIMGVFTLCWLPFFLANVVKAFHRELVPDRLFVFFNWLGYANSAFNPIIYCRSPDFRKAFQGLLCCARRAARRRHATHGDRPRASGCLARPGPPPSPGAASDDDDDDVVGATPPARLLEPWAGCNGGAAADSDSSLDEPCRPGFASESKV

EC50 ([1]; cAMP accumulation, CHO/pKREX10-36, 37° C. 30 minutes): 0.27 nM | stimulating activity of human β3-adrenergic receptor (in words) ([1]; conclusion from Table 1): potent | Emax ([1]; relative maximal response, 10^-5 M (−)-isoproterenol = 100%, read-out: β3-receptor I.A. (intrinsic activity)): 110% | EC50 ([2]; cAMP accumulation, CHO/pKREX21-8): 21 nM | stimulating activity of human β2-adrenergic receptor (in words) ([2]; conclusion from Table 1): quite weak | Emax ([2]; relative maximal response, 10^-5 M (−)-isoproterenol = 100%, read-out: β2-receptor I.A. (intrinsic activity)): 45% | EC50 ([3]; cAMP accumulation, CHO/pKREX23-30): 3.5 nM | stimulating activity of human β1-adrenergic receptor (in words) ([3]; conclusion from Table 1): quite weak | Emax ([3]; relative maximal response, 10^-5 M (−)-isoproterenol = 100%, read-out: β1-receptor I.A. (intrinsic activity)): 83%
SMILES: C[C@H](Cc1c[nH]c2c(OCC(=O)O)cccc12)NC[C@H](O)c1cccc(Cl)c1 [Compound A, [3-[(2R)-[[(2R)-(3-chlorophenyl)-2-hydroxyethyl]amino]propyl]-1H-indol-7-yloxy]acetic acid]
